Experiments:
[1] = molecular target: T1, 380 human recombinant protein kinases (Homo sapiens, UniProt O75747); test: Eurofins kinase selectivity profile against 380 other human recombinant kinases (Table S2); format: biochemical; conditions: PI3KC2γ(h), read-out: Inhibition rate (%)
T1 construct: purchased Eurofins (Celle Lévescault)
T1 sequence (O75747 1-1486): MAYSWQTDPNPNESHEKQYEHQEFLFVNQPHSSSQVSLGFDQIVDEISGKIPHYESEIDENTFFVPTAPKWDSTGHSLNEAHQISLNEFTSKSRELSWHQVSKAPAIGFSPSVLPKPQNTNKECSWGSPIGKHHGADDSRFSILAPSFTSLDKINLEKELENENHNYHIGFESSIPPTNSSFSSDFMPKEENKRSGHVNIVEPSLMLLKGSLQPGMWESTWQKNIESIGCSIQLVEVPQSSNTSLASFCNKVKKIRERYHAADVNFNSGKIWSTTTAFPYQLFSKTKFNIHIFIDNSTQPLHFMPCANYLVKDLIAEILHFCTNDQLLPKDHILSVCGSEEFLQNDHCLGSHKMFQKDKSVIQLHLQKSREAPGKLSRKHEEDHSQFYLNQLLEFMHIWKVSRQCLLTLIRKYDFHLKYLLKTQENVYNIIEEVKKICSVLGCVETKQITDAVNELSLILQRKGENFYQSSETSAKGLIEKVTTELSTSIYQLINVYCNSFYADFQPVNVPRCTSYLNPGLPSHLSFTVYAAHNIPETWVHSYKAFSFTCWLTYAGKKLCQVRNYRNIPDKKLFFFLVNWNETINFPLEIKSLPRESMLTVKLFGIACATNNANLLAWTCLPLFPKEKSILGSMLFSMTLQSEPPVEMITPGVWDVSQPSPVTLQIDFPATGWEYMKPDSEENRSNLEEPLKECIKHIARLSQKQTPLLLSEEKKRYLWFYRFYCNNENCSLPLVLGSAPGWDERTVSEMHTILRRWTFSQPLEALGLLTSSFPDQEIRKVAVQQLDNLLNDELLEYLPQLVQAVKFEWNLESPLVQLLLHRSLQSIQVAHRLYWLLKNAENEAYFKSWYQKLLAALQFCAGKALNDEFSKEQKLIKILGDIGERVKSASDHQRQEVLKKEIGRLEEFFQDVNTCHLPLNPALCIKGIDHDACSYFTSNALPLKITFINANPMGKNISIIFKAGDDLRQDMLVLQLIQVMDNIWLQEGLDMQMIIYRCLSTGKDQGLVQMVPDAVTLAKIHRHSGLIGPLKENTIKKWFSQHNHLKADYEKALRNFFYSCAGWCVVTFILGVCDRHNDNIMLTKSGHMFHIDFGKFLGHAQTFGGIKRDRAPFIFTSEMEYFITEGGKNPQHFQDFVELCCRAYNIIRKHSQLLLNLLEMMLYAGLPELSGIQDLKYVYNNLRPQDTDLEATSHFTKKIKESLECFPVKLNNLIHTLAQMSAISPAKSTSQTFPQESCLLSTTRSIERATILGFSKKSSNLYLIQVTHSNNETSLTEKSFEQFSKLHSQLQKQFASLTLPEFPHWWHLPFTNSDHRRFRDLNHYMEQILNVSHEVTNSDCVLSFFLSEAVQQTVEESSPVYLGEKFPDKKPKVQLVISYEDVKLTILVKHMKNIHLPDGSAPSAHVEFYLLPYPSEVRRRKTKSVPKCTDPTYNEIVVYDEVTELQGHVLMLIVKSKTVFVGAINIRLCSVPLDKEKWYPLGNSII
Summary of the method: (§1)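 Commercial selectivity screen of the test compound against a panel of 380 human recombinant protein kinases, run by an outside contractor at several compound concentrations to check whether its potency was specific for MK2.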

[2] = molecular target: T2, 380 human recombinant protein kinases (Homo sapiens, UniProt O75385); test: as above; format: biochemical; conditions: ULK1(h), read-out: Inhibition rate (%)
T2 construct: purchased Eurofins (Celle Lévescault)
T2 sequence (O75385 1-1050): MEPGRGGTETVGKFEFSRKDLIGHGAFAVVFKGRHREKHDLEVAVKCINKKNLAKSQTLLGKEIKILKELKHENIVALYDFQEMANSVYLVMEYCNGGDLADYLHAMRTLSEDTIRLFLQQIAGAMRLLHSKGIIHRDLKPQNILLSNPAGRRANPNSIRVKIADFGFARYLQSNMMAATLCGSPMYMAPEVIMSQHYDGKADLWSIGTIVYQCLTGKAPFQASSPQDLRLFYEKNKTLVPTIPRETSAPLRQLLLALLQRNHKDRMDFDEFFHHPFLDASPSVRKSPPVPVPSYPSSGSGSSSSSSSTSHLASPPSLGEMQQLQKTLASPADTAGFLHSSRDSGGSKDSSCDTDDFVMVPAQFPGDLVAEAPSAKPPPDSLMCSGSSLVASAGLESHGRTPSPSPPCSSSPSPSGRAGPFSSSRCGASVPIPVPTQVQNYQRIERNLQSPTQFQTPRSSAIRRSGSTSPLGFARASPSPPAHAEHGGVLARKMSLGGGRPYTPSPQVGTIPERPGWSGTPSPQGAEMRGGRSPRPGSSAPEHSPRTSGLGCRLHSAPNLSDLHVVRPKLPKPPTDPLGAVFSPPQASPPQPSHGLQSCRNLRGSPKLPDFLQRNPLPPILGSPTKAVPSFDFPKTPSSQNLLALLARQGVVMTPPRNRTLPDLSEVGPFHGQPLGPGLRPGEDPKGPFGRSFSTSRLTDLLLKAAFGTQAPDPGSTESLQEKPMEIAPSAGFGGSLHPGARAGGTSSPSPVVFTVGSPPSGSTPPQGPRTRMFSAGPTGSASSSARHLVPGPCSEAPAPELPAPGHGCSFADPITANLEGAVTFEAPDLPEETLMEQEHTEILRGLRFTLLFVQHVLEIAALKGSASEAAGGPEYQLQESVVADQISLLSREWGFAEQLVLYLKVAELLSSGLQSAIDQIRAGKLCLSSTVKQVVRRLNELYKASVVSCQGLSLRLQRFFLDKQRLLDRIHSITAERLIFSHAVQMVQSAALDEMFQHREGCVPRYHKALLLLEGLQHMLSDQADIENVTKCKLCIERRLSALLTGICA
Summary of the method: as §1

Question: How did the inhibition at 0.01 µM ([1]; 10 nM) turn out when `C=CC(=O)Nc1cc(-c2cc(-c3cc4c([nH]3)CCNC4=O)ccn2)ccc1OC(F)(F)F` [compound 11] was run?
Answer: 6%

Question: And the inhibition at 0.1 µM ([1]; 100 nM)?
Answer: 13%

Question: And the inhibition at 1 µM ([1]; 1000 nM)?
Answer: 12%

Question: What about the inhibition at 0.01 µM ([2]; 10 nM) of the same compound?
Answer: 6%

Question: And the inhibition at 0.1 µM ([2]; 100 nM)?
Answer: -8%

Question: What about the inhibition at 1 µM ([2]; 1000 nM) of the same compound?
Answer: -3%
